SMILES strings stand for the structures.

Experimental findings from the METLIN SMRT retention time set (Domingo-Almenara et al. 2019) are described below.

This series can be described thus: gradient 5% acetonitrile 3 min, to 50% in 2 min, to 85% in 15 min, held 3 min, 100 µL/min. As to conditions: column: Zorbax Extend-C18 2.1 x 50 mm; eluents: water / acetonitrile, 0.1% formic acid. An outline of the steps: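 Data were gathered over 3 months by HPLC coupled to a quadrupole time-of-flight mass spectrometer, operated in positive and negative ionization mode. Mixtures of ~100 pure standards ran on a Zorbax Extend-C18 column (2.1 × 50 mm, 1.8 μm) at 100 μL/min, with water and acetonitrile each containing 0.1% formic acid and dead and dwell volumes of 40 μL and 900 μL. Retention time was read from adduct peaks picked by computer and checked manually.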
For the molecule `CC(=O)N1CCCC1c1nc(C2CN(C(=O)c3ccsc3)C2)no1` (stereo not drawn), the RP-LC retention time was 629 s.
The figure for `Cc1cc(N2CCN(C(=O)Nc3cccc(C)c3C)CC2)nc(N2CCOCC2)n1` is 633 s.
The figure for `CCn1cc(CCNC(=O)c2cncc(Br)c2)c2cccnc21` is 699 s; for `Cc1cccc(-c2noc(Cc3nnc(-c4ccc(F)cc4)o3)n2)c1` it is 1070 s.
The figure for `Cc1nnc(-c2ccc3ccn(CC(=O)Nc4nccs4)c3c2)o1` is 707 s; for `COCCn1c(CC2CCN(S(=O)(=O)c3ccc(OC)cc3)C2)nc2cccnc21` (stereo not drawn) it is 668 s; for `COC(=O)c1ncn2c1C(=O)N(c1cccc(C)c1)C(C)(C(=O)NCc1ccc(C)cc1)C2` (stereo not drawn) it is 734 s.
Molecule `CCOc1ccc(NC(=O)Cn2c(=O)cc(-c3nc(CC)no3)c3ccccc32)cc1` yielded an RP-LC retention time of 936 s.
The molecule `O=C(NC(c1ccccc1)c1nnc(N2CCCC2)o1)c1ccc(Cl)cc1` (stereo not drawn) gave an RP-LC retention time of 860 s.
As to `O=C(NCc1ccc(-c2noc(-c3cc(F)cc(F)c3)n2)s1)C1CC1`, the RP-LC retention time was 952 s.
The figure for `O=C(Cn1nc(N2CCCCCC2)c2ccccc2c1=O)NCc1ccc(F)cc1` is 1040 s; for `COc1cc(=O)c(C(=O)NC(C)C)nn1-c1ccc(C)cc1` it is 694 s.
Molecule `COc1ccc(N2CCN(c3cc(SCC(=O)NCc4ccccc4OC)ncn3)CC2)cc1` returned an RP-LC retention time of 888 s.
With `CCN1C(=O)c2cc(C(=O)NCc3ccc(F)cc3)nn2CC1(C)C(=O)NC1CCCC1` (stereo not drawn), the RP-LC retention time amounted to 734 s.
For `Cc1ccccc1C(=O)N1CCN(S(=O)(=O)c2cc3c4c(c2)CCC(=O)N4CCC3)CC1` the value was 785 s; for `COC(=O)c1ncn2c1C(=O)N(Cc1cccc(Br)c1)C(C)(C(=O)NC1CCCC1)C2` (stereo not drawn), 764 s.
The figure for `Cc1nc2cccnc2n1C1CCN(C(=O)Nc2cccc(F)c2)CC1` is 947 s.
Molecule `Cc1ccc(C)c(N2CCN(c3ccnc(SCC(=O)NCc4ccc(F)cc4)n3)CC2)c1` registered an RP-LC retention time of 908 s.
For `CC(=O)N1CCc2cc(N3CC(C(=O)NC(C)c4ccc(C)cc4C)CC3=O)ccc21` (stereo not drawn) the value was 772 s.
The figure for `CC(C)(C)NC(=O)N[C@H](C(=O)N1C[C@H]2[C@@H]([C@H]1C(=O)NC(CC1CCC1)C(=O)C(N)=O)C2(C)C)C(C)(C)C` (stereo partly drawn) is 1020 s; for `Cc1noc(C2CN(C(=O)Nc3ccccc3)CC23CCOCC3)n1` (stereo not drawn) it is 650 s; for `COc1cc(CCC(=O)N2C[C@@H](C(N)=O)[C@H](c3n[nH]c(C)n3)C2)on1` it is 566 s.
The figure for `O=S(=O)(c1cccnc1)N1CCCn2nc(-c3cccc(F)c3)cc2C1` is 698 s; for `Fc1ccc(C2Cn3nnc(-c4nc(-c5cccc(Cl)c5)no4)c3CO2)cc1` (stereo not drawn) it is 1260 s.
In turn, `CCC[C@H](Nc1nc(-c2ccc(NC(=O)NCC)c(OC)c2)ncc1C)c1cccnc1` came in with an RP-LC retention time of 666 s.
The figure for `Cc1ccc(-c2nc3ncccn3c2Nc2ccc3c(c2)OCCO3)cc1` is 684 s; for `CCN(CCNC(=O)CCc1cc2ccc(C)cc2[nH]c1=O)Cc1ccccc1` it is 639 s.
For `O=C(CN1CCN(Cc2ccc(F)cc2)C1=O)N1CCN(c2ccccc2)CC1` the value was 824 s; for `COc1ccc(N2CC(c3nc(-c4ccc(Br)cc4)no3)CC2=O)cc1OC` (stereo not drawn), 977 s.
Molecule `CCc1nc(-c2csc(S(=O)(=O)N3CCC(C(=O)Nc4ccccc4CC)CC3)c2)no1` gave an RP-LC retention time of 1010 s.
For `O=C(c1cccs1)N1CCC2(CC1)N=C(c1ccccc1)NO2` the value was 747 s; for `COCCC(=O)Nc1cnn(-c2ncc(N3CCCCC3)cn2)c1`, 667 s.
Consider `CCCNC(=O)C1CCCN(c2ccc(SCC(=O)Nc3ccc4c(c3)OCCO4)nn2)C1` (stereo not drawn), for which the RP-LC retention time was determined as 657 s.
In turn, `O=C(CC1CCCC1)N1[C@H]2CC[C@@H]1c1cnc(-c3ccc(F)cc3)nc1C2` showed an RP-LC retention time of 1060 s.
`Cc1cccc(-c2nc3ccccn3c2NC(=O)Nc2cc(F)ccc2F)c1` displayed an RP-LC retention time of 715 s.
The figure for `CCOc1ccc2nc(NC(=O)COc3nccc(C)n3)sc2c1` is 744 s; for `O=C(COc1ccc(F)cc1)NCC1CCOCC1` it is 677 s; for `O=C(CCc1ccccc1)Nc1ccc2c(c1)N(C(=O)c1ccco1)CCC2` it is 871 s.
For `Cc1ccc(NS(=O)(=O)c2ccc3c(c2)C(=O)N(C)c2ncccc2O3)c(C)c1` the value was 986 s; for `COc1cccc(-c2cc3n(n2)CCCN(C(=O)Cc2ccsc2)C3)c1`, 587 s.
For `C=CCNC(=O)c1cn(-c2ccc(-c3nc(C(C)C)no3)cn2)cn1` the value was 824 s; for `Cn1nc(-c2nc(C3CC3)no2)c2c1CCN(C(=O)c1ccc(C(F)(F)F)s1)C2`, 970 s.
Take `COc1ccc(-c2noc(Cn3nc(-c4ccccc4)ccc3=O)n2)c(OC)c1`: the RP-LC retention time stood at 880 s.
The figure for `COc1ccc(CN2C[C@@H]3C(=O)N(Cc4ccc5c(c4)OCO5)C(=O)[C@@H]3C2)cc1` is 689 s; for `CCCN1CCN(C(=O)c2ccc(CS(=O)c3ccccc3Cl)o2)CC1` (stereo not drawn) it is 593 s.
Turning to `Cc1nnc(-c2cc(NC(=O)c3cccc(Br)c3)c(C)s2)o1`, the RP-LC retention time worked out at 938 s.
Turning to `O=C1CCCc2cc(S(=O)(=O)N3CCC(C(=O)Nc4cccc(Cl)c4)CC3)ccc2N1`, the RP-LC retention time was 826 s.
In the case of `CCNc1cc(-n2ccnc2)ncn1`, the RP-LC retention time turned out to be 541 s.
The figure for `Cc1ccc(-c2noc(C3CCCN3C(=O)C(NS(=O)(=O)c3ccc(C)cc3)C(C)C)n2)cc1` (stereo not drawn) is 1150 s; for `COCc1c(C(=O)O)nnn1-c1ccc(OC)c(OC)c1` it is 626 s.
For `CC1CCCCN1c1cc(-n2cnc(C(=O)Nc3ccc4c(c3)OCCO4)c2)ncn1` (stereo not drawn) the value was 1040 s; for `CCC(C)NC(=O)Cn1c(=O)n(-c2cc(OC)cc(OC)c2)c(=O)c2ccccc21` (stereo not drawn), 800 s.
For `COc1cc(CNC(=O)C2CCN(Cc3cn(C)c4ccccc34)CC2)cc(OC)c1` the value was 674 s.
In turn, `COc1ccc2[nH]cc(CCNC(=O)Cn3nc(C)c4c(C)onc4c3=O)c2c1` returned an RP-LC retention time of 698 s.
The figure for `CC(C)CC(=O)Nc1ccc2c(c1)nc(CN1CCCC1)n2C(C)C` is 612 s; for `Cc1noc(C)c1CCNC(=O)CCCn1c2ccccc2c2cnn(C)c(=O)c21` it is 713 s; for `COc1ccc(N2CCN(c3nc(C(=O)N4CCCC4)cs3)CC2)cc1` it is 853 s.
The molecule `Cc1occc1C(=O)N1CCC2(CC1)CC(C)(O)CCO2` (stereo not drawn) showed an RP-LC retention time of 645 s.
For `O=C(CCc1nc(-c2ccc(N3CCCC3)cc2)no1)N1CCN(c2ncccn2)CC1` the value was 957 s; for `COc1ccccc1-c1ccc(=O)n(Cc2nc(-c3ccc(F)cc3)no2)n1`, 995 s.
For `CN1CCN(C(=O)c2c3c(nc4ccccc24)C(=O)N(C2CCCCC2)C3)CC1` the value was 600 s; for `Cn1nc(-c2nc(-c3cccc(Cl)c3)no2)ccc1=O`, 942 s.
For `Cc1ccc(-c2nnc(N3CCC(C(=O)NCCN4CCCCCC4)CC3)o2)cc1` the value was 632 s; for `Cc1ccc(-c2noc(-c3nc(Cc4ccccc4)no3)n2)cc1`, 1240 s.
Turning to `Cc1oc(C2CCN(S(=O)(=O)c3cccc(F)c3)CC2)nc1C(=O)N(C)C`, the RP-LC retention time worked out at 798 s.
For `CCN1CCN(C(=O)c2ccc(-c3nnc4ccc(NC(=O)C5CC5)cn34)cc2)CC1` the value was 587 s; for `CCOC(=O)c1csc(-n2nc(C(F)(F)F)cc2-c2ccc(OC)cc2)n1`, 1280 s; for `COC(=O)c1cc(S(=O)(=O)N2CCCC2C(=O)Nc2ccccc2)cn1C` (stereo not drawn), 818 s.
The figure for `C=C1C[C@@]23CC[C@H]4[C@@](C)(CCC[C@@]4(C)C(=O)O)[C@@H]2CC[C@]1(O)C3` is 1030 s; for `CN(CCc1noc(-c2ccc(Cl)cc2)n1)C(=O)NCc1ccccc1` it is 932 s; for `O=C(COc1ccccc1F)Nc1ccc2c(c1)N(C(=O)c1ccco1)CCC2` it is 834 s.
Take `COc1ccc(CNC(=O)Cc2nnc(-c3ccc4ncccc4c3)o2)c(OC)c1`: the RP-LC retention time came out at 841 s.
`COc1ccc(OC)c(CNS(=O)(=O)c2cccc(-c3nc(-c4ccc(C)cc4)no3)c2)c1` gave an RP-LC retention time of 1220 s.
The figure for `CCCOc1cccc(C(=O)N(Cc2ccc(Br)o2)C2CCS(=O)(=O)C2)c1` (stereo not drawn) is 1010 s; for `O=C(Nc1nc(C(=O)N2CCN(c3ccccn3)CC2)co1)c1cnccn1` it is 517 s.
Molecule `CCCc1noc(-c2ccc3nnc(CC(=O)NC4CCCCC4)n3c2)n1` gave an RP-LC retention time of 826 s.
For `COc1ccc(C)c2sc(NCCCn3ccnc3)nc12` the value was 552 s; for `CC1CCCN(C(=O)c2ccc3c(c2)Sc2ncccc2C(=O)N3C(C)C)C1` (stereo not drawn), 850 s.
